The first assay has as its system ventricular strips. In words: Cardiac stimulant activity in vitro: force of contraction of electrically stimulated guinea pig right ventricular strips. To be noted: Cavia porcellus; 50% increase in force of contraction; 0.5 Hz stimulation, Krebs Henseleit solution, 37° C. The method, then:
The compounds of formula (I) and their pharmaceutically acceptable salts are tested for cardiac stimulant activity following a procedure based on that of S. […]. Pharm & Exp. Therapeutics, 200, 352-362 (1977)). Guinea pigs (500-700 g) of either sex are sacrificed and the hearts are quickly removed and transferred to a dissecting dish containing oxygenated bathing fluid. While in the bathing medium, the right ventricle is cut into two strips. The strips are each suspended in a 75 ml bath containing Krebs Henseleit solution at 37° C. and the bath is bubbled with 95% oxygen and 5% carbon dioxide. The ventricular strips are electrically stimulated at a frequency of 0.5 Hz, at double the threshold voltage. A resting tension of 1.0 g is applied to the strips and the tension is kept constant by readjustment during an equilibration period of 60 minutes. The bathing fluid is frequently changed during this period. When a steady base line is obtained, a compound under test is added to the bathing fluid and a cumulative concentration response curve is plotted. […] In the above test method the compounds of the Examples gave the following data : […]
In turn, `Nc1ccc2c(c1)CC1CC(=O)NN=C21` (stereo not drawn) [Example 1, 7-Amino-4,4a-dihydro-[5H]-indeno[1,2-c]pyridazin-3[2H]-one] gave an EC50 of 14 µM.
`CC12CC(=O)NN=C1c1ccc(C(N)=O)cc1C2` (stereo not drawn) [Example 3, 7-Carboxamido-4,4a-dihydro-4a-methyl-[5H]-indeno[1,2-C]-pyridazin-3[2H]-one] came in with an EC50 of 27 µM.
As for `COc1ccc2c(c1)CC1(C)CC(=O)NN=C21` (stereo not drawn) [Example 7, 4,4a-Dihydro-7-methoxy-4a-methyl-[5H]-indeno[1,2-c]-pyridazin-3[2H]-one], the EC50 was determined as 21 µM.
`COc1ccc2c(c1)CCC1(C)CC(=O)NN=C21` (stereo not drawn) [Example 10, 8-Methoxy-4a-methyl-4,4a,5,6-tetrahydrobenzo[h]cinnolin-3[2H]-one] came in with an EC50 of 23 µM.
`CN=C(NC#N)Nc1ccc2c(c1)CCC1CC(=O)NN=C21` (stereo not drawn) [Example 15, 8-(N^2 -Methyl-N^3-cyanoguanidino)-4,4a,5,6-tetrahydrobenzo-[h]cinnolin-3[2H]-one]: the EC50 turned out to be 22 µM.

Tested on in the next assay: not given
Test: not given
To be noted: Curran et al, J. Med. Chem. 1974, p 273; cited from earlier work.
Take `COc1ccc2c(c1)CCC1CC(=O)NN=C21` (stereo not drawn) [8-Methoxy-4,4a,5,6-tetrahydrobenzo[h]cinnolin-3[2H]-one]: the hypotensive activity entry is listed as “not showing any hypotensive activity”.
As for `COc1ccc2c(c1)CCc1cc(=O)[nH]nc1-2` [dehydro analogue, 5,6-Dihydro-8-methoxybenzo[h]cinnolin-3[2H]-one], the hypotensive activity result was “not showing any hypotensive activity”.

A further assay relates to left ventricular dp/dt max. In words: Cardiac stimulant activity in vivo in anaesthetised cats (left ventricular dp/dt max, i.v.). Further details: species or system cat; key to Relative Duration: ***: Long; **: medium; *: short. To be noted: Felis catus, read-out: ED50 (dose to increase left ventricular dp/dt max by 50%); intravenous; anaesthetised cats pretreated with ganglion blocker (mecamylamine or pempidine) and propranolol.
Take `Nc1ccc2c(c1)CC1CC(=O)NN=C21` (stereo not drawn) [Example 1, 7-Amino-4,4a-dihydro-[5H]-indeno[1,2-c]pyridazin-3[2H]-one]: the ED50 was found to be 1.8 µmol/kg.
Turning to `CC12CC(=O)NN=C1c1ccc(C(N)=O)cc1C2` (stereo not drawn) [Example 3, 7-Carboxamido-4,4a-dihydro-4a-methyl-[5H]-indeno[1,2-C]-pyridazin-3[2H]-one], the ED50 came to 0.4 µmol/kg.
In the case of `COc1ccc2c(c1)CC1(C)CC(=O)NN=C21` (stereo not drawn) [Example 7, 4,4a-Dihydro-7-methoxy-4a-methyl-[5H]-indeno[1,2-c]-pyridazin-3[2H]-one], the ED50 was determined as 1.4 µmol/kg.
Turning to `COc1ccc2c(c1)CCC1(C)CC(=O)NN=C21` (stereo not drawn) [Example 10, 8-Methoxy-4a-methyl-4,4a,5,6-tetrahydrobenzo[h]cinnolin-3[2H]-one], the ED50 came out at 0.2 µmol/kg.
The same measure, in the same setting: the result for `CN=C(NC#N)Nc1ccc2c(c1)CCC1CC(=O)NN=C21` (stereo not drawn) [Example 15, 8-(N^2 -Methyl-N^3-cyanoguanidino)-4,4a,5,6-tetrahydrobenzo-[h]cinnolin-3[2H]-one] reads 1.2 µmol/kg; that for `NC(=O)c1ccc2c(c1)CCC1CC(=O)NN=C21` (stereo not drawn) [Example 17, 8-Carboxamido-4,4a,5,6-tetrahydrobenzo[h]cinnolin-3[2H]-one], 1.2 µmol/kg; that for `CC12CCc3cc(C(N)=O)ccc3C1=NNC(=O)C2` (stereo not drawn) [Example 19, 8-Carboxamido-4a-methyl-4,4a,5,6-tetrahydrobenzo[h]cinnolin-3[2H]-one], 1.6 µmol/kg.

The same assay, now with this note: estimated in the anaesthetised cats following i.v. administration.
As to `Nc1ccc2c(c1)CC1CC(=O)NN=C21` (stereo not drawn) [Example 1, 7-Amino-4,4a-dihydro-[5H]-indeno[1,2-c]pyridazin-3[2H]-one], the “Relative Duration” value is given as “**”.
Same read-out and setting: then `CC12CC(=O)NN=C1c1ccc(C(N)=O)cc1C2` (stereo not drawn) [Example 3, 7-Carboxamido-4,4a-dihydro-4a-methyl-[5H]-indeno[1,2-C]-pyridazin-3[2H]-one], with “*”; and `COc1ccc2c(c1)CC1(C)CC(=O)NN=C21` (stereo not drawn) [Example 7, 4,4a-Dihydro-7-methoxy-4a-methyl-[5H]-indeno[1,2-c]-pyridazin-3[2H]-one], with “**”.
As for `COc1ccc2c(c1)CCC1(C)CC(=O)NN=C21` (stereo not drawn) [Example 10, 8-Methoxy-4a-methyl-4,4a,5,6-tetrahydrobenzo[h]cinnolin-3[2H]-one], the “Relative Duration” value is reported as “*”.
For `CN=C(NC#N)Nc1ccc2c(c1)CCC1CC(=O)NN=C21` (stereo not drawn) [Example 15, 8-(N^2 -Methyl-N^3-cyanoguanidino)-4,4a,5,6-tetrahydrobenzo-[h]cinnolin-3[2H]-one], the “Relative Duration” value was “**”.
Turning to `NC(=O)c1ccc2c(c1)CCC1CC(=O)NN=C21` (stereo not drawn) [Example 17, 8-Carboxamido-4,4a,5,6-tetrahydrobenzo[h]cinnolin-3[2H]-one], the “Relative Duration” value is reported as “**”.
Still for that read-out and setting: then `CC12CCc3cc(C(N)=O)ccc3C1=NNC(=O)C2` (stereo not drawn) [Example 19, 8-Carboxamido-4a-methyl-4,4a,5,6-tetrahydrobenzo[h]cinnolin-3[2H]-one], with “**”.
